Laboratory results published in ChEMBL document CHEMBL1201862, “PubChem BioAssay data set” (2004).
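Growth conditions: 96-well plates. Treatment: test compound, 48 hours, 5 concentrations. Analysis: linear interpolation between bracketing concentrations; unreached endpoints set to highest concentration. Here, GI50 denotes the concentration required for 50% inhibition of growth.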 Activity calls are given as the source filed them. Rule as the data show it: active = GI50 up to about 1.1 µM and inactive = higher.

Assays:
Assay in all cases: inhibition of tumour cell growth, NCI panel, 48 h
[1] = test system: M14
[2] = test system: U-251
[3] = test system: SNB-75
[4] = test system: SF-539
[5] = test system: UACC-257
[6] = test system: SK-MEL-5
[7] = test system: KM12
[8] = test system: OVCAR-8
[9] = test system: K562
[10] = test system: SK-MEL-2
[11] = test system: CCRF-CEM
[12] = test system: UO-31
[13] = test system: COLO 205
[14] = test system: CAKI-1
[15] = test system: DMS-114
[16] = test system: Hs-578T
[17] = test system: T47D
[18] = test system: MCF7
[19] = test system: NCI/ADR-RES
[20] = test system: MDA-MB-231

Row | Structure (SMILES) | GI50 [1] | GI50 [2] | GI50 [3] | GI50 [4] | GI50 [5] | GI50 [6] | GI50 [7] | GI50 [8] | GI50 [9] | GI50 [10] | GI50 [11] | GI50 [12] | GI50 [13] | GI50 [14] | GI50 [15] | GI50 [16] | GI50 [17] | GI50 [18] | GI50 [19] | GI50 [20]
1 | CC(C)CCC[C@@H](C)C1CCC2[C@@H]3CC=C4C[C@@H](OC(=O)CCC(=O)NCC[N+](C)(C)CCCS(=O)(=O)[O-])CC[C@]4(C)C3CC[C@@]21C (stereo not given in full) | 19.7 µM (inactive) | 18.3 µM (inactive) | 21.1 µM (inactive) | 16.7 µM (inactive) | 23.2 µM (inactive) | > 10 µM (inactive) | 20.5 µM (inactive) | 18.6 µM (inactive) | 18.9 µM (inactive) | 18.8 µM (inactive) | 23.5 µM (inactive) | 41 µM (inactive) | 19.6 µM (inactive) | 40.7 µM (inactive) | 20.6 µM (inactive) |  |  |  |  | 
2 | COc1ccc(/C(=N\NC(=S)NN)C(c2ccc(OC)cc2)C2C(=O)Oc3ccccc32)cc1 (stereo not given) | > 10 µM (inactive) | > 10 µM (inactive) | > 10 µM (inactive) | > 10 µM (inactive) | > 10 µM (inactive) | > 10 µM (inactive) | > 10 µM (inactive) | > 10 µM (inactive) | > 10 µM (inactive) | > 10 µM (inactive) | 64.9 µM (inactive) | > 10 µM (inactive) | > 10 µM (inactive) | > 10 µM (inactive) | 14.8 µM (inactive) |  |  |  |  | 
3 | Cc1c(C(=O)CSc2nc3ccccc3c(=O)n2-c2ccccc2)c(=O)n(-c2ccccc2)n1C | 94.2 µM (inactive) | 22.4 µM (inactive) | 60.8 µM (inactive) | 63.2 µM (inactive) | 47.3 µM (inactive) | 31.6 µM (inactive) | 54.7 µM (inactive) |  |  | > 100 µM (inactive) | > 100 µM (inactive) | 34.8 µM (inactive) | > 100 µM (inactive) | 0.185 µM (active) | > 100 µM (inactive) |  |  |  |  | 
4 | NNC(=O)CNC(=O)c1ccc(Cl)cc1Cl | > 100 µM (inactive) | 39.6 µM (inactive) | > 100 µM (inactive) | > 100 µM (inactive) | > 100 µM (inactive) | > 100 µM (inactive) | > 100 µM (inactive) | > 100 µM (inactive) | > 100 µM (inactive) |  | > 100 µM (inactive) | > 100 µM (inactive) | > 100 µM (inactive) | > 100 µM (inactive) | > 100 µM (inactive) |  |  |  |  | 
5 | COC1CCC(OC)C(C2(C3CC(OC)CCC3OC)OC(=O)c3ccccc32)C1 (stereo not given) | 64.7 µM (inactive) | 93.8 µM (inactive) | > 100 µM (inactive) | > 100 µM (inactive) | > 100 µM (inactive) | 26.4 µM (inactive) | 38.9 µM (inactive) | > 100 µM (inactive) | 22.2 µM (inactive) | 93.8 µM (inactive) |  | 70.3 µM (inactive) | 28.8 µM (inactive) | > 100 µM (inactive) | 55.7 µM (inactive) |  |  |  |  | 
6 | CCOC(=O)/C=C/n1c2ccccc2c(=O)c2ccccc21 | > 100 µM (inactive) | > 100 µM (inactive) |  | > 100 µM (inactive) | > 100 µM (inactive) |  | > 100 µM (inactive) | > 100 µM (inactive) | > 100 µM (inactive) | > 100 µM (inactive) | > 100 µM (inactive) | > 100 µM (inactive) | > 100 µM (inactive) | > 100 µM (inactive) | > 100 µM (inactive) |  |  |  |  | 
7 | O=C(/C=C/c1ccc(OCc2ccccc2)cc1)NCc1ccc(C(=O)NCc2ccccc2)cc1 | > 100 µM (inactive) | > 100 µM (inactive) | 36.6 µM (inactive) | > 100 µM (inactive) | > 100 µM (inactive) | > 100 µM (inactive) | > 100 µM (inactive) | > 100 µM (inactive) | > 100 µM (inactive) | > 100 µM (inactive) | > 100 µM (inactive) | > 100 µM (inactive) | > 100 µM (inactive) | > 100 µM (inactive) |  | > 100 µM (inactive) | > 100 µM (inactive) | > 100 µM (inactive) | > 100 µM (inactive) | > 100 µM (inactive)
8 | CO/C=C(\Br)c1ccc2c(c1)OCO2 | > 100 µM (inactive) | > 100 µM (inactive) | > 100 µM (inactive) | > 100 µM (inactive) | > 100 µM (inactive) |  | > 100 µM (inactive) | > 100 µM (inactive) | > 100 µM (inactive) | > 100 µM (inactive) | > 100 µM (inactive) | > 100 µM (inactive) |  | > 100 µM (inactive) | > 100 µM (inactive) |  |  |  |  | 
9 | COC(=O)C1=C(C(=O)OC)C2(C)Nc3ccccc3C2=C(c2ccccc2)C1 (stereo not given) | 17 µM (inactive) | 19.8 µM (inactive) | 2.13 µM (inactive) | 17.1 µM (inactive) | 17.9 µM (inactive) | 15.5 µM (inactive) | 13.5 µM (inactive) | 25 µM (inactive) | 16.1 µM (inactive) | 17.8 µM (inactive) | 19.4 µM (inactive) | 17.9 µM (inactive) | 19.2 µM (inactive) |  | 18.3 µM (inactive) |  |  |  |  | 
10 | O=c1cc(-c2ccccc2)oc2cc(OCC(O)COc3ccc4c(=O)cc(-c5ccccc5)oc4c3)ccc12 | > 100 µM (inactive) | 20.8 µM (inactive) |  | 22.4 µM (inactive) | > 100 µM (inactive) | > 100 µM (inactive) | > 100 µM (inactive) | 19.1 µM (inactive) | 42.8 µM (inactive) | 21.5 µM (inactive) | 33 µM (inactive) | > 100 µM (inactive) |  | > 100 µM (inactive) | > 100 µM (inactive) |  |  |  |  | 
11 | COC12CCC(C(C(=O)c3ccccc3)=C1C(=O)c1ccccc1)C(O)C2 (stereo not given) | > 100 µM (inactive) |  | > 100 µM (inactive) | > 100 µM (inactive) | > 100 µM (inactive) | > 100 µM (inactive) | > 100 µM (inactive) | > 100 µM (inactive) | > 100 µM (inactive) | > 100 µM (inactive) | > 100 µM (inactive) | > 100 µM (inactive) | > 100 µM (inactive) | > 100 µM (inactive) | > 100 µM (inactive) |  |  |  |  | 
12 | O=C(OC1CC(n2cc(F)c(=O)[nH]c2=O)OC1CSC(=O)c1ccccc1)c1ccccc1 (stereo not given) | 28.1 µM (inactive) | 17.6 µM (inactive) | 19.4 µM (inactive) | 36.5 µM (inactive) | 29.2 µM (inactive) |  | 27.4 µM (inactive) | 34.8 µM (inactive) | 54.3 µM (inactive) | 48.5 µM (inactive) | 37.2 µM (inactive) | 38.8 µM (inactive) | 29.6 µM (inactive) |  | 37.3 µM (inactive) |  |  |  |  | 
13 | CCCCN(CCCC)C(=O)C(=O)CC(=O)c1ccc(Br)cc1 | > 100 µM (inactive) | > 100 µM (inactive) |  | > 100 µM (inactive) | > 100 µM (inactive) | > 100 µM (inactive) | > 100 µM (inactive) | > 100 µM (inactive) | > 100 µM (inactive) | > 100 µM (inactive) | > 100 µM (inactive) | > 100 µM (inactive) | > 100 µM (inactive) | > 100 µM (inactive) | > 100 µM (inactive) |  |  |  |  | 
14 | c1ccc2c(C3NCCc4nc[nH]c43)cccc2c1 (stereo not given) | > 100 µM (inactive) | > 100 µM (inactive) | > 100 µM (inactive) | > 100 µM (inactive) | > 100 µM (inactive) | > 100 µM (inactive) | > 100 µM (inactive) | > 100 µM (inactive) | > 100 µM (inactive) | > 100 µM (inactive) | > 100 µM (inactive) | > 100 µM (inactive) | > 100 µM (inactive) | > 100 µM (inactive) | > 100 µM (inactive) |  |  |  |  | 
15 | CCCCSC1CCSc2c1ccc1ccccc21 (stereo not given) | 74.1 µM (inactive) | > 100 µM (inactive) |  | > 100 µM (inactive) |  | > 100 µM (inactive) | > 100 µM (inactive) | > 100 µM (inactive) | 44.9 µM (inactive) | > 100 µM (inactive) |  | > 100 µM (inactive) | > 100 µM (inactive) | > 100 µM (inactive) | > 100 µM (inactive) |  |  |  |  | 
16 | CCOC(=O)C1S/C(=N\c2cccc(Cl)c2C)N=C1C (stereo not given) |  | 15.1 µM (inactive) | 16.3 µM (inactive) | 25.6 µM (inactive) | > 10 µM (inactive) |  | 27 µM (inactive) | 21.3 µM (inactive) | 34.1 µM (inactive) | 19.5 µM (inactive) |  | 37.4 µM (inactive) | 21.4 µM (inactive) |  | 30.4 µM (inactive) |  |  |  |  | 
17 | N#C/C(=C\c1cc(O)cc(O)c1)C(N)=O | > 100 µM (inactive) | > 100 µM (inactive) | 22 µM (inactive) | > 100 µM (inactive) | > 100 µM (inactive) |  | 80.5 µM (inactive) | > 100 µM (inactive) | > 100 µM (inactive) | > 100 µM (inactive) | > 100 µM (inactive) | > 100 µM (inactive) | > 100 µM (inactive) | > 100 µM (inactive) | > 100 µM (inactive) |  |  |  |  | 
18 | C[N+](C)(C)CCC(=O)CC[N+](C)(C)C | 18.3 µM (inactive) | > 100 µM (inactive) | 19.9 µM (inactive) | 19.8 µM (inactive) | 17.6 µM (inactive) | 35.3 µM (inactive) | 20 µM (inactive) | 19.8 µM (inactive) | 6.68 µM (inactive) | 21.5 µM (inactive) | 2.49 µM (inactive) | 92 µM (inactive) | 16.4 µM (inactive) | 15.7 µM (inactive) | 20.8 µM (inactive) |  |  |  |  | 
19 | CC12CCC(=O)N1c1cc([N+](=O)[O-])ccc1N2 (stereo not given) | > 100 µM (inactive) | > 100 µM (inactive) | > 100 µM (inactive) | > 100 µM (inactive) | > 100 µM (inactive) | > 100 µM (inactive) | > 100 µM (inactive) | > 100 µM (inactive) | > 100 µM (inactive) | > 100 µM (inactive) | > 100 µM (inactive) | > 100 µM (inactive) | > 100 µM (inactive) |  | > 100 µM (inactive) |  |  |  |  | 
